# Measurements reported in PMC10285453 (Comprehensive Psychoneuroendocrinology, 2023).
# Legend:
# [1] = test system: primary polyclonal rabbit anti-OXT IgG (Cayman Chemical Company OXT EIA, secondary monoclonal mouse anti-rabbit IgG); test: OXT EIA cross-reactivity, Cayman Chemical Company kit; type: binding
# [2] = test system: primary polyclonal rabbit anti-OXT IgG (Cayman Chemical Company OXT EIA, secondary monoclonal mouse anti-rabbit IgG); conditions: competitive EIA; ref manufacturer (Cayman Chemical Company); cited from earlier work
# [3] = test system: primary polyclonal rabbit anti-OXT IgG (Enzo Life Sciences OXT EIA, secondary polyclonal goat anti-rabbit IgG); conditions: competitive EIA; published IC50; ref manufacturer (Enzo Life Sciences); cited from earlier work
# [4] = same ultrafiltration columns, cited from earlier work
# [5] = Reversed phase SPE of OXT from pure solution; type: physicochemical; conditions: 200 pg/ml pure OXT solution, 0.1% TFA-H2O, separate C-18 column elutions, Enzo Life Sciences EIA
substance,measurement,setting,value
Immunoglobulin G,cross-reactivity (IC50(OXT)/IC50(interfering protein)),[1],< 0.01%
Immunoglobulin M,cross-reactivity (IC50(OXT)/IC50(interfering protein)),[1],< 0.01%
Transferrin,cross-reactivity (IC50(OXT)/IC50(interfering protein)),[1],< 0.01%
oxytocin [OXT],mean IC50 of the Cayman Chemical Company OXT assay,[2],0.08 ng/mL
same,IC50 of the Enzo Life Sciences OXT assay,[3],0.228 ng/mL
same,"OXT recovery rate from plasma, ultrafiltration",[4]; plasma,91.8%
same,"OXT recovery rate from saliva, ultrafiltration",[4]; saliva,68.4%
same,"OXT recovered in the eluate, reversed phase SPE","[5]; 30–40% ACN range, CV for three columns 30.8–136.5%",10.1–49.1%
same,"total amount of OXT measured in all fractions (load, wash, eluate) as % of the original sample",[5],37.1–92.2%
